According to US20100331338A1, “Glucokinase Activators” (Merck Patent GMBH, priority 2008, published 2010):

Target: T1, hGK (Homo sapiens, UniProt P35557)
T1 sequence (P35557 1-465): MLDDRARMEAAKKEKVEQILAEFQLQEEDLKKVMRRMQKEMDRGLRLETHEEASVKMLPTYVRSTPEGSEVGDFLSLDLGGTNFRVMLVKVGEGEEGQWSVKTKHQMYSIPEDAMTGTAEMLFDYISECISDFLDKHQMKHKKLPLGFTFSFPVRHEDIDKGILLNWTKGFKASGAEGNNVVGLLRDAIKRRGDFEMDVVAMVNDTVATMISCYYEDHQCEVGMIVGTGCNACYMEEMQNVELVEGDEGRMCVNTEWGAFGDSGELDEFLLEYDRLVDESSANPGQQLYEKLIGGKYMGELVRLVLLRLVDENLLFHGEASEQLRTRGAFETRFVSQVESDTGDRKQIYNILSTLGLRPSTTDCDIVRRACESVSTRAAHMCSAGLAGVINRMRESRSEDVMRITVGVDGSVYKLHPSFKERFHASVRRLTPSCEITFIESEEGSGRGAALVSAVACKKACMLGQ
Assay: Glucokinase Activation Screening Assay (coupled enzyme assay with PK/LDH)
Type: biochemical
Conditions: 2 mM glucose; for hGK fold activation at 30 μM: fold activation at 30 μM compound
Description: Glucokinase Activation Screening Assay
GK activity (human or rat enzyme) is measured by a coupled enzyme assay using pyruvate kinase (PK) and lactate dehydrogenase (LDH) as coupling enzymes. GK activity is calculated from the decline in NADH monitored photometrically with a microtiter plate (MTP) reader at 340 nm.
For screening purposes, the GK assay is routinely run in a 384-MTP format, in a total volume of 33 μl/well. 10 μl of the ATP-regeneration solution (in HEPES-buffer*, pH 7.0, 6.73 U/ml pyruvate kinase, 6.8 U/ml lactate dehydrogenase) and 10 μl of the glucokinase-/glucose solution (15 μg/ml, 6.6 mM glucose in HEPES-buffer*, pH 7.0; the concentration of the glucose stock-solution was 660 mM in Millipore H2O) were mixed together with […] of a 10% DMSO solution (in HEPES-buffer*, pH 7.0) containing 3.3-fold the amounts of the compounds to achieve final compound concentrations in the range between 1 nM to 30 μM (sometimes 300 μM) in the assay solution (s. below). The solutions were mixed for 5 sec, and after a centrifugation at 243×g for 5 min, the solutions were preincubated for 25 min at room temperature.
The reaction was started by the addition of 10 μl of the NADH-/ATP-solution (4.29 mM NADH, 4.95 mM ATP, in HEPES-buffer*). The MTP was shaken for 5 sec., and then, the absorbance at 340 nm was monitored continuously in a MTP-reader (TECAN Spectro fluor plus) for the next 27 min (with a MTP-cycling time of 199 sec.). The final concentrations of the various components were as follows: 49.5 mM Hepes, pH 7.0, 1.49 mM PEP,1,3 mM NADH, 49.5 mM KCl, 4.96 mM MgCl2, 1.5 mM Mg-ATP, 1.98 mM DTT, 2.04 U/ml pyruvate kinase, 2.06 U/ml lactate-dehydrogenase, 0.91% DMSO, 0.15 μg/well glucokinase, and test compounds in the range between 1 nM and 300 μM.
The change in the optical density (ΔOD340 nm) in the presence of the compound was expressed relative to the ΔOD340 nm, ctrl of the control incubation (in the presence of 2 mM glucose and 0.91% DMSO), taking into account the optical density of the blank sample (incubation in the absence of 2 mM glucose). For the determination of the half maximal effective concentration (EC50), the %-Ctrl-values were plotted in a semi-logarithmic graph against the conc. of the compound of interest. The data points were fitted to a sigmoid curve function (f(x)=((%-Ctrlmax%-Ctrlmin)/(1−(EC50/x**^n(Hill)))+%-Ctrlmin)) by a non-linear regression analysis.
* Hepes-buffer (50 mM Hepes, pH 7.0, 5 mM MgCl2, 50 mM KCl, 1.5 mM PEP, 0.1% BSA). DTT was added to the Hepes-buffer from a 200× stock solution (in Millipore H2O) freshly each day. The final concentration of DTT in the Hepes-buffer is 2 mM.

Compound: O=C(Nc1nccs1)c1csc([N+](=O)[O-])c1 [Example 20, 5-Nitro-thiophene-3-carboxylic acid thiazol-2-ylamide]
- hGK fold activation at 30 μM: 1.4

Compound: CCCc1cc(C(=O)Nc2nc3ccccc3[nH]2)cs1 [Example 21, 5-Propyl-thiophene-3-carboxylic acid(1H-benzoimidazol-2-yl)-amide]
- hGK fold activation at 30 μM: 2.4

Compound: CCCc1cc(C(=O)Nc2nncs2)cs1 [Example 24, 5-Propyl-thiophene-3-carboxylic acid[1,3,4]thiadiazol-2-ylamide]
- hGK fold activation at 30 μM: 2.4

Compound: Cc1ccc(C(=O)Nc2nccs2)s1 [Example 26, 5-Methyl-thiophene-2-carboxylic acid thiazol-2-ylamide]
- hGK fold activation at 30 μM: 1.5

Compound: CCCc1cc(C(=O)Nc2ccc(F)cn2)cs1 [Example 27, 5-Propyl-thiophene-3-carboxylic acid(5-fluoro-pyridin-2-yl)-amide]
- hGK fold activation at 30 μM: 2.1

Compound: CCCc1cc(C(=O)Nc2ccon2)cs1 [Example 28, 5-Propyl-thiophene-3-carboxylic acid isoxazol-3-ylamide]
- hGK fold activation at 30 μM: 2

Compound: CCCc1cc(C(=O)Nc2ccn(C)n2)cs1 [Example 29, 5-Propyl-thiophene-3-carboxylic acid(1-methyl-1H-pyrazol-3-yl)-amide]
- hGK fold activation at 30 μM: 5.5

Compound: CCCc1cc(C(=O)Nc2cc(Cl)ccn2)cs1 [Example 31, 5-Propyl-thiophene-3-carboxylic acid(4-chloro-pyridin-2-yl)-amide]
- hGK fold activation at 30 μM: 2.7

Compound: CCCc1sc(C(=O)Nc2nccs2)cc1CC [Example 33, 4-Ethyl-5-propyl-thiophene-2-carboxylic acid thiazol-2-ylamide]
- hGK fold activation at 30 μM: 9.4

Compound: CCCc1cc(C(=O)Nc2ccncn2)cs1 [Example 36, 5-Propyl-thiophene-3-carboxylic acid pyrimidin-4-ylamide]
- hGK fold activation at 30 μM: 2.7

Compound: CCCc1cc(C(=O)Nc2ccn(Cc3ccccn3)n2)cs1 [Example 37, 5-Propyl-thiophene-3-carboxylic acid(1-pyridin-2-ylmethyl-1H-pyrazol-3-yl)-amide]
- hGK fold activation at 30 μM: 3.6

Compound: CCCc1cc(C(=O)Nc2cc[nH]n2)cs1 [Example 38, 5-Propyl-thiophene-3-carboxylic acid(1H-pyrazol-3-yl)-amide]
- hGK fold activation at 30 μM: 2.7

Compound: CCCc1cc(C(=O)Nc2cc(C)ccn2)cs1 [Example 39, 5-Propyl-thiophene-3-carboxylic acid(4-methyl-pyridin-2-yl)-amide]
- hGK fold activation at 30 μM: 2.4

Compound: CCOC(=O)Cn1ccc(NC(=O)c2cc(COC)cs2)n1 [Example 40, {3-[(4-Methoxymethyl-thiophene-2-carbonyl)-amino]-pyrazol-1-yl}-acetic acid ethyl ester]
- EC50: 4.2 µM
- hGK fold activation at 30 μM: 2.6

Compound: CCCc1cc(C(=O)Nc2ccccn2)cs1 [Example 41, 5-Propyl-thiophene-3-carboxylic acid pyridin-2-ylamide]
- hGK fold activation at 30 μM: 2.5

Compound: CCCc1cc(C(=O)Nc2nc(C(=O)O)cs2)cs1 [Example 42, 2-[(5-Propyl-thiophene-3-carbonyl)-amino]-thiazole-4-carboxylic acid]
- EC50: 9 µM
- hGK fold activation at 30 μM: 3.3

Compound: COCc1csc(C(=O)Nc2cc(C)n(CC(=O)O)n2)c1 [Example 43, {3-[(4-Methoxymethyl-thiophene-2-carbonyl)-amino]-5-methyl-pyrazol-1-yl}-acetic acid]
- hGK fold activation at 30 μM: 1.2

Compound: COCc1csc(C(=O)Nc2ccn(CC(=O)O)n2)c1 [Example 44, {3-[(4-Methoxymethyl-thiophene-2-carbonyl)-amino]-pyrazol-1-yl}-acetic acid]
- hGK fold activation at 30 μM: 1.7

Compound: CCCc1cc(C(=O)Nc2nc(CC(=O)O)cs2)cs1 [Example 46, {2-[(5-Propyl-thiophene-3-carbonyl)-amino]-thiazol-4-yl}-acetic acid]
- hGK fold activation at 30 μM: 2.1

Compound: CCN(CC)S(=O)(=O)c1cc(C(=O)Nc2nccs2)sc1C [Example 48, 4-Diethylsulfamoyl-5-methyl-thiophene-2-carboxylic acid thiazol-2-ylamide]
- EC50: 3.9 µM
- hGK fold activation at 30 μM: 6.4

Compound: Cc1sc(C(=O)Nc2nccs2)cc1S(=O)(=O)NCc1ccccc1 [Example 49, 4-Benzylsulfamoyl-5-methyl-thiophene-2-carboxylic acid thiazol-2-ylamide]
- hGK fold activation at 30 μM: 1.3

Compound: Cc1sc(C(=O)Nc2nccs2)cc1S(=O)(=O)N(C)C [Example 50, 4-Dimethylsulfamoyl-5-methyl-thiophene-2-carboxylic acid thiazol-2-ylamide]
- EC50: 3.9 µM
- hGK fold activation at 30 μM: 2.6

Compound: CCCOc1sc(C(=O)Nc2nccs2)cc1S(C)(=O)=O [Example 52, 4-Methanesulfonyl-5-propoxy-thiophene-2-carboxylic acid thiazol-2-ylamide]
- EC50: 10 µM
- hGK fold activation at 30 μM: 2.1

Compound: CCCc1cc(C(=O)Nc2nccs2)cs1 [Example 53, 5-Propyl-thiophene-3-carboxylic acid thiazol-2-ylamide]
- EC50: 10 µM
- hGK fold activation at 30 μM: 5.6
